Data: paper PMC4666356 (2015)

Key:
[1] = system: mt6363 (DNA, G4) AGGGACGCGGGCGGGGGATATAGGGT; test: CD melting at 265 nm; conditions: 20 mM K+; 4 uM DNA, 8 uM compound
[2] = system: mt1015 (DNA, G4) GGGCTTGATGTGGGGAGGGGTGTTTAAGGG; test: fluorescence lifetime; conditions: qualitative; decay time ~3.3 ns

Structure (SMILES)	dTm [1]	binding [2]
C[n+]1ccccc1/C=C/c1ccc2c(c1)c1cc(/C=C/c3cccc[n+]3C)ccc1n2CCCCCCCCCCCC[N+]1(C)CCCCC1	~ 30 °C	yes
C[n+]1ccccc1/C=C/c1ccc2c(c1)c1cc(/C=C/c3cccc[n+]3C)ccc1n2CCCCCC[N+]1(C)CCCCC1	~ 30 °C	
